Experimental data reported in patent publication US11643421B2, “Process for the preparation of tricyclic PI3K inhibitor compounds and methods for using the same for the treatment of cancer” (priority 2015, dated 2023).

Experiments:
[1] = system: pAKT; assay: pAKT/tAKT in normal brain tissue; format: in vivo, female CD-1 mice
Description: The effect of compound IIIat on pAKT in normal brain tissue, expressed as the ratio of phosphorylated AKT (pAKT) to total AKT (tAKT) was evaluated. […] In the evaluation, female CD-1 mice were administered a single PO dose of the indicated compound. Brains and plasma were collected at the indicated time post-dose, from 3 animals at each time point. Individual brains were split in half for PD analysis and compound concentration measurement. The samples were stored at −70° C. and analyzed for total concentration. For PD analysis, cell extraction buffer (Invitrogen, Camarillo, Calif.) containing 10 mM Tris pH 7.4, 100 mM NaCl, 1 mM EDTA, 1 mM EGTA, 1 mM NaF, 20 mM Na4P2O7, 2 mM Na3VO4, 1% Triton X-100, 10% glycerol, 0.1% SDS, and 0.5% deoxycholate was supplemented with phosphatase, protease inhibitors (Sigma, St. Louis, Mo.) and 1 mM PMSF and added to frozen brain biopsies. […] Protein concentration was determined using BCA protein assay (Pierce, Rockford, Ill.). […] Licor Odyssey Infrared detection system (Licor, Lincoln, Nebr.) was used to assess and quantify protein expression. PI3K pathway markers were evaluated by immunoblotting using antibodies against pAkt^ser473 and total Akt (Invitrogen, Camarillo, Calif. and Cell Signaling, Danvers, Mass.). Inhibition of pAkt (%) was calculated by comparing pAkt signal with that measured in untreated mice.

[2] = Hepatocyte stability, predicted hepatic clearance; format: in vitro ADME, cynomolgus monkeys; details: Cyno hepatocytes, in vitro t1/2 method
Description: The hepatocyte stability of compound IIIat was evaluated across preclinical species. Certain in vivo pharmacokinetic parameters were also evaluated. […] Male Sprague-Dawley rats, female CD-1 mice, male cynomolgus monkeys and beagle dogs were dosed intravenously with 1 mg/kg of compound IIIat prepared in 60% PEG400/10% Ethanol. Compound IIIat was administered orally (PO) at the indicated dose in 0.5% methylcellulose with 0.2% Tween 80 (MCT).

[3] = Brain binding, dialysis of brain homogenate; format: in vitro ADME; details: mouse brain homogenate, n=3, read-out: free fraction in brain tissues
Description: Following dialysis, tissues and buffer samples were analyzed as described for the plasma protein binding studies.

[4] = biological target: Abl (Homo sapiens, UniProt P00519); assay: biochemical; details: read-out: % inhib
Sequence of Abl (P00519 whole entry, species assumed): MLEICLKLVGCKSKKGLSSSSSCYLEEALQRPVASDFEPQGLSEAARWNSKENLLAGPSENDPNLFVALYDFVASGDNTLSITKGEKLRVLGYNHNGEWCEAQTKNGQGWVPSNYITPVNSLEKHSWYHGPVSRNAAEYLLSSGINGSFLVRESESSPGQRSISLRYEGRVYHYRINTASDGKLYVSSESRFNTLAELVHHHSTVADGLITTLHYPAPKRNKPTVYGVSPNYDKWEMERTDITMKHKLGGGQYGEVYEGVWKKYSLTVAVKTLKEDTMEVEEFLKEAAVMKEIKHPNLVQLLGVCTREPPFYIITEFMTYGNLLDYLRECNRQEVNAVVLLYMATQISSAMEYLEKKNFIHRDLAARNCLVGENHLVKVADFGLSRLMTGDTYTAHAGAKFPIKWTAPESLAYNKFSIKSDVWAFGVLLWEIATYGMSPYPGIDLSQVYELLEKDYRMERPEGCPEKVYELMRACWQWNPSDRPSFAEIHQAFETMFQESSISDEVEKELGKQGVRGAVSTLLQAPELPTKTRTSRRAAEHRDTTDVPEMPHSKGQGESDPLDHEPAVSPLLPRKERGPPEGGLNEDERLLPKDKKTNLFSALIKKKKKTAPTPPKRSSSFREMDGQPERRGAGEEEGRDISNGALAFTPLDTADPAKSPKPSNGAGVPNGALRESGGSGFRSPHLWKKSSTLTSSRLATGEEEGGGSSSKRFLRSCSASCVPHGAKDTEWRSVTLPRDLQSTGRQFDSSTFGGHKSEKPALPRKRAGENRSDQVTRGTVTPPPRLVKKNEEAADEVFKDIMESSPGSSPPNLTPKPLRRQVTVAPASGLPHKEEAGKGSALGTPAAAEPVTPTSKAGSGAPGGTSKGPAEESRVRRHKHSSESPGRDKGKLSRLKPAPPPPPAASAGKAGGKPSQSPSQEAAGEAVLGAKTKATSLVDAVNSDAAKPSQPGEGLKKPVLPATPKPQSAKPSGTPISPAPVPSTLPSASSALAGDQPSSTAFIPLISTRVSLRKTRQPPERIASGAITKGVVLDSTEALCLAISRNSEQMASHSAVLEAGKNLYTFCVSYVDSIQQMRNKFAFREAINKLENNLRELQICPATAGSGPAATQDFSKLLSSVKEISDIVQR

[5] = biological target: CLK1 (Homo sapiens, UniProt P49759); assay: biochemical; details: read-out: % inhib
Sequence of CLK1 (P49759 whole entry): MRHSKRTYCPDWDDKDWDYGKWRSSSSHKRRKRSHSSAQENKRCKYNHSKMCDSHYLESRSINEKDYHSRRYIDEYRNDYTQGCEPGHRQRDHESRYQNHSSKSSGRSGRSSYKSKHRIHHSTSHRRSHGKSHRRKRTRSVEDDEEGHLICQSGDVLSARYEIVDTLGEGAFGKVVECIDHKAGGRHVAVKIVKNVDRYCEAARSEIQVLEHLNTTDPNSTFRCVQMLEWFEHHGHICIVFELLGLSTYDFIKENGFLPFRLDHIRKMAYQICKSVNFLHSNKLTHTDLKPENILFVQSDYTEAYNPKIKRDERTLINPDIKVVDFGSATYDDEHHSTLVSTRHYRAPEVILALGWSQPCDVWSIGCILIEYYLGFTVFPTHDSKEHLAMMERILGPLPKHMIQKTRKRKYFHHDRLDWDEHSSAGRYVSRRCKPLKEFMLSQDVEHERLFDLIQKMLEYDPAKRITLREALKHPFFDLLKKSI

[6] = biological target: CSK (Homo sapiens, UniProt P41240); assay: biochemical; details: read-out: % inhib
Sequence of CSK (P41240 whole entry, species assumed): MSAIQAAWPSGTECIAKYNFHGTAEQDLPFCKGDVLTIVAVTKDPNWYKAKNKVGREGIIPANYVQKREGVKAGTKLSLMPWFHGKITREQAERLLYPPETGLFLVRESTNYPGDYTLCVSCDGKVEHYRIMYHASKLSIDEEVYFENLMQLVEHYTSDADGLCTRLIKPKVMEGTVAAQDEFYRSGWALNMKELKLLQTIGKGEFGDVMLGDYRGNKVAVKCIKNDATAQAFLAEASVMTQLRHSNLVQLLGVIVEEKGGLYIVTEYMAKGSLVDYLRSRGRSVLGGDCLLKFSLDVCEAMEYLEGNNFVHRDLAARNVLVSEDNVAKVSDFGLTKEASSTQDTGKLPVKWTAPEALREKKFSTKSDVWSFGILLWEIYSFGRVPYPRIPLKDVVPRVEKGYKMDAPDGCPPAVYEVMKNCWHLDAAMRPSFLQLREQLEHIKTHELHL

[7] = biological target: EphA4 (Homo sapiens, UniProt P54764); assay: biochemical; details: read-out: % inhib
[8] = biological target: ErbB4 (Homo sapiens, UniProt Q15303); assay: biochemical; details: read-out: % inhib
Sequence of ErbB4 (Q15303 26-1308): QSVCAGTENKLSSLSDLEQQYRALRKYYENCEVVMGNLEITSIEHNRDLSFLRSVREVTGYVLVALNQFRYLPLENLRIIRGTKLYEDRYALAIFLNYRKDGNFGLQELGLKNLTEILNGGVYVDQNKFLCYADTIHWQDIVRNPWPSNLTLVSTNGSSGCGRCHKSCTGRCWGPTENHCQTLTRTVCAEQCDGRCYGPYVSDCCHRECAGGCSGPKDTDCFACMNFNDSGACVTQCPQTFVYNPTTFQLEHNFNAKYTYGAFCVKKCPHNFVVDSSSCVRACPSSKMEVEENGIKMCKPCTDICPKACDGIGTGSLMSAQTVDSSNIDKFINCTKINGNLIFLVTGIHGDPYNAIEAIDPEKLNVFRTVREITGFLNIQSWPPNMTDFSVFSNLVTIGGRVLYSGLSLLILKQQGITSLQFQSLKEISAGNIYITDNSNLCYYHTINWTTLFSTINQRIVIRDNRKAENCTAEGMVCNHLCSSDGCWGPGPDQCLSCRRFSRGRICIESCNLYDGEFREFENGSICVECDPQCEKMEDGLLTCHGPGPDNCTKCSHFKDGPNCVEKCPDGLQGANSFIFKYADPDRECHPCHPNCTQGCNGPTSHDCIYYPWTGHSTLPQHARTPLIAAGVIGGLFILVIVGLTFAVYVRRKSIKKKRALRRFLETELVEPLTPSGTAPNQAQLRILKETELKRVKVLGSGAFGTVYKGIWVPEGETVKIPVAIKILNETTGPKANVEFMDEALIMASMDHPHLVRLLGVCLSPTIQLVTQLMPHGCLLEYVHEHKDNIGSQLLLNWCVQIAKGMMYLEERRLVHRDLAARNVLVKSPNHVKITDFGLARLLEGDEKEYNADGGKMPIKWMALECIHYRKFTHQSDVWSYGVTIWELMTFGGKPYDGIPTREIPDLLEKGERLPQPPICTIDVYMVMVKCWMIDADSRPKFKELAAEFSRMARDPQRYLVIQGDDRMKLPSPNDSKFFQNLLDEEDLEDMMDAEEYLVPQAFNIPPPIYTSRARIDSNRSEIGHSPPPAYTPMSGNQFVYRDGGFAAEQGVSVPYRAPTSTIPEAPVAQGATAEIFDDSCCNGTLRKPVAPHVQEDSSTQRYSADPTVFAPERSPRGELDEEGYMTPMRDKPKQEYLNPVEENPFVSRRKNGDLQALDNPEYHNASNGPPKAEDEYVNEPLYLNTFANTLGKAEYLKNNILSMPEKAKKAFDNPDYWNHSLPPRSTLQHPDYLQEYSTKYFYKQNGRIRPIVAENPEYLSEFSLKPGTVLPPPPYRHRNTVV

[9] = biological target: MSK2 (Homo sapiens, UniProt O75676); assay: biochemical; details: read-out: % inhib
Sequence of MSK2 (O75676 whole entry, species assumed): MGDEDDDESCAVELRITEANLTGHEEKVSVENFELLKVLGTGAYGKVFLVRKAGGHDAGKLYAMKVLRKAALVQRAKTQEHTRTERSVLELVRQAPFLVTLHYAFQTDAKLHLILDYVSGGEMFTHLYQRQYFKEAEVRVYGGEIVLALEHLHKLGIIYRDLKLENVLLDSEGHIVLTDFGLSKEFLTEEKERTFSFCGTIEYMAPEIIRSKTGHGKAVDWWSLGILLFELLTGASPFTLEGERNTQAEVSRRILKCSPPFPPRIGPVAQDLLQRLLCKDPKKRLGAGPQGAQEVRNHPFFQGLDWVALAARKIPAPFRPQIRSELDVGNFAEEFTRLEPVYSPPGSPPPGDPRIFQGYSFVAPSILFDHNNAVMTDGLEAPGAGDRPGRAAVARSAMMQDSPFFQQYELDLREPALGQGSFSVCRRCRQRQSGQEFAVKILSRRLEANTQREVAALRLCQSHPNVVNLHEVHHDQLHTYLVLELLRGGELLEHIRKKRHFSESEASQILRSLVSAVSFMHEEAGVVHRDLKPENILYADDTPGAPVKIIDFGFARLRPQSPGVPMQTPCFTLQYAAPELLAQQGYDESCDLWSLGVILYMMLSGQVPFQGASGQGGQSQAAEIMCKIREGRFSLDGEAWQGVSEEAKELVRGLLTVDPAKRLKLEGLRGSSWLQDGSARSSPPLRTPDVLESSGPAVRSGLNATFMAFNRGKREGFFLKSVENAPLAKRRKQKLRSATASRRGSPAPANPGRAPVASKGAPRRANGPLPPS

[10] = biological target: MYLK2 (skMLCK) (Homo sapiens, UniProt Q9H1R3); assay: biochemical; details: read-out: % inhib
Sequence of MYLK2 (skMLCK) (Q9H1R3 whole entry): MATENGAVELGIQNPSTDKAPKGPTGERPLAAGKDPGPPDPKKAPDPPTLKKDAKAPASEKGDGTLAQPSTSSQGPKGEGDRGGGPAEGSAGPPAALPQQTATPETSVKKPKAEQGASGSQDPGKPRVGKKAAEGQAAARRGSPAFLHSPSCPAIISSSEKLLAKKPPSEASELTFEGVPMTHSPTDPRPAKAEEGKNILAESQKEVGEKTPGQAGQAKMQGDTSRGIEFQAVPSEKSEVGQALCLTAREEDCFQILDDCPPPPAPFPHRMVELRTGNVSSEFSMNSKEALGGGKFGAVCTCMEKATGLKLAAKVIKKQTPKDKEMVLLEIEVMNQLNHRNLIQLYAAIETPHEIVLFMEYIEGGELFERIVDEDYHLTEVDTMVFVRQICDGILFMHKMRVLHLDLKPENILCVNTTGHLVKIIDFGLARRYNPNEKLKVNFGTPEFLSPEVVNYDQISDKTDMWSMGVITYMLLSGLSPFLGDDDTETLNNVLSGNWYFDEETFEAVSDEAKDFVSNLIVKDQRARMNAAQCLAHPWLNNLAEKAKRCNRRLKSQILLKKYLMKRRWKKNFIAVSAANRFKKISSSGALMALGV

[11] = biological target: PI4Ka (Homo sapiens, UniProt P42356); assay: biochemical; details: read-out: % inhib
[12] = biological target: PhK_gamma2 (Homo sapiens, UniProt P15735); assay: biochemical; details: read-out: % inhib
[13] = biological target: Ron (Homo sapiens, UniProt Q04912); assay: biochemical; details: read-out: % inhib
[14] = biological target: ZAP-70 (Homo sapiens, UniProt P43403); assay: biochemical; details: read-out: % inhib

CC1(C)OCCn2c1nc1c(N3CCOCC3)nc(-c3cnc(N)nc3)nc12 [GDC-0084, 5-(6,6-dimethyl-4-morpholino-8,9-dihydro-6H-[1,4]oxazino[3,4-e]purin-2-yl)pyrimidin-2-amine]
pAKT in normal mouse brain tissue ([1]; 3 mg/kg or 10 mg/kg orally, 1 h post-dose): inhibited | pAKT in normal mouse brain tissue ([1]; 3 mg/kg orally, 4 hours post-dose): no longer resulted in inhibition of pAKT | Clhep [2]: 26 mL/min/kg | fraction unbound at 4 h, 5 µM [3]: 0.067 | inhibition at 1 µM [4]: 2% | inhibition at 1 µM [5]: 4% | inhibition at 1 µM [6]: 10% | inhibition at 1 µM [7]: 3% | inhibition at 1 µM [8]: 7% | inhibition at 1 µM [9]: 0.6% | inhibition at 1 µM [10]: 3% | inhibition at 1 µM [11]: 7% | inhibition at 1 µM [12]: 0% | inhibition at 1 µM [13]: 8% | inhibition at 1 µM [14]: -0.9%
